Test results published in PubChem BioAssay (NCI).
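Where inhibition never reached the appropriate level, the endpoint shown equals the highest concentration tested. Otherwise, values were interpolated linearly from a five-concentration, 48-hour dose response in 96-well plates. TGI denotes the concentration required for complete inhibition of growth.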

Tests used:
Assay in all cases: NCI anticancer screen, dose series, 48 h
A498 renal = system: A498 renal
OVCAR-5 ovarian = system: OVCAR-5 ovarian
786-0 renal = system: 786-0 renal
HCT-116 colon = system: HCT-116 colon
KM12 colon = system: KM12 colon
HL-60(TB) leukemia = system: HL-60(TB) leukemia
A549 NSCLC = system: A549 NSCLC
SNB-75 CNS = system: SNB-75 CNS
U251 CNS = system: U251 CNS
LOX IMVI melanoma = system: LOX IMVI melanoma
SR leukemia = system: SR leukemia
MOLT-4 leukemia = system: MOLT-4 leukemia
SF-268 CNS = system: SF-268 CNS
HOP-62 NSCLC = system: HOP-62 NSCLC
SK-MEL-5 melanoma = system: SK-MEL-5 melanoma
HS 578T breast = system: HS 578T breast
DU-145 prostate = system: DU-145 prostate
CAKI-1 renal = system: CAKI-1 renal
HOP-92 NSCLC = system: HOP-92 NSCLC

| SMILES | TGI (A498 renal) [µM] | TGI (OVCAR-5 ovarian) [µM] | TGI (786-0 renal) [µM] | TGI (HCT-116 colon) [µM] | TGI (KM12 colon) [µM] | TGI (HL-60(TB) leukemia) [µM] | TGI (A549 NSCLC) [µM] | TGI (SNB-75 CNS) [µM] | TGI (U251 CNS) [µM] | TGI (LOX IMVI melanoma) [µM] | TGI (SR leukemia) [µM] | TGI (MOLT-4 leukemia) [µM] | TGI (SF-268 CNS) [µM] | TGI (HOP-62 NSCLC) [µM] | TGI (SK-MEL-5 melanoma) [µM] | TGI (HS 578T breast) [µM] | TGI (DU-145 prostate) [µM] | TGI (CAKI-1 renal) [µM] | TGI (HOP-92 NSCLC) [µM] |
| --- | --- | --- | --- | --- | --- | --- | --- | --- | --- | --- | --- | --- | --- | --- | --- | --- | --- | --- | --- |
| O=C(O)Cn1c(=O)[nH]c(=O)c2[nH]cnc21 | > 100 | > 100 | > 100 | > 100 | > 100 | > 100 | > 100 | > 100 | > 100 | > 100 | > 100 | > 100 | > 100 | > 100 | > 100 |  |  |  |  |
| O=C1/C(=C/c2ccccc2)CCc2ccccc21 | 34.5 | 33.4 | 34.7 | 33.5 | 33.8 | 37.8 | 57.4 | 31.9 | 30.4 | 33 | 38.9 | 40.8 | 37.4 | 34.4 | 32.3 | 72.4 | 37 | 32.7 |  |
| C/C(CC(=O)NC1=CC=C(NC(=O)C/C(C)=N\Nc2ccccc2)CC1)=N/Nc1ccccc1 | > 100 | > 100 | > 100 | > 100 | > 100 | > 100 | > 100 | > 100 | > 100 | > 100 | > 100 | > 100 | > 100 | > 100 | > 100 |  |  | > 100 | > 100 |
| COc1cc(C)c(C)c(OC(=O)c2c(C)c(C)c(OC)c(C)c2OC)c1C | 45.9 | 91.4 | 53.4 | 39 | 50.9 | 32.6 | 71.8 | 36 | 21 | 20.9 | 22 | 45.2 | 56.2 | > 100 | 22.7 |  |  | 79.6 | 53.9 |
| CC1(C)CCC[C@]2(C)[C@@H]1CC[C@@]13O[C@@H]1C1=C(CO)C(=O)OC1=C[C@@H]23 | 76.8 | 23.2 | 27.3 | 12.8 | 24.8 |  | 24.4 | 88.4 | 67.4 |  |  | > 100 | 54.7 | 49.3 | 29.5 |  | 39.7 | 34.2 | 37 |
| COC(=O)c1ccccc1NC(=O)C(=O)CC(=O)CC(c1ccccc1)c1c(O)c2ccccc2oc1=O (stereo unspecified) | > 100 | > 100 | > 100 | > 100 | > 100 | > 100 | > 100 |  |  |  | > 100 | > 100 | > 100 | > 100 | > 100 |  |  | > 100 |  |
| CC(C)(Oc1ccc2c(=O)cc(-c3ccccc3)oc2c1)C(=O)Nc1c(Cl)cccc1Cl | > 100 | > 100 | > 100 | > 100 | > 100 | > 100 | > 100 |  | > 100 | > 100 | > 100 | > 100 | > 100 | > 100 | > 100 |  |  | > 100 | > 100 |
| CCc1cccc(CC)c1NC(=O)C1=C(C)NC(C)=C(C(=O)Nc2c(CC)cccc2CC)C1c1ccc2c(c1)OCO2 | 38.9 | 31.7 | 29.9 | 35.7 | 36.5 | 26.4 | 66.5 | 38.1 | 27.4 | 26 | 65 | > 100 | 35.9 | 37.2 | 33 |  |  | 52 | 32.1 |
| COC(=O)C1N=CSCC1(C)O (stereo unspecified) | > 100 | > 100 | > 100 | > 100 | > 100 | > 100 | > 100 | > 100 |  | > 100 |  | > 100 | > 100 | > 100 | > 100 |  |  | > 100 | > 100 |
| CC(=O)NC(CCCNC(=O)NCCCl)C(=O)NCc1ccccc1 (stereo unspecified) |  |  | > 100 | > 100 | > 100 | > 100 | > 100 | > 100 | > 100 |  | > 100 | > 100 | > 100 | > 100 | > 100 |  |  | > 100 | > 100 |
| NC(=S)N/N=c1\cc(C(=O)Nc2ccc([N+](=O)[O-])cc2[N+](=O)[O-])oc2ccccc12 |  | > 100 | > 100 | > 100 | > 100 | > 100 | > 100 | > 100 | > 100 | > 100 |  | > 100 | > 100 | > 100 | > 100 | > 100 | > 100 | > 100 | > 100 |
| COc1ccc(NC(=O)CC(=O)N/N=C/c2ccc(N(CCC#N)S(=O)(=O)c3ccccc3)cc2)cc1 |  | > 100 | > 100 | > 100 | > 100 | > 100 | > 100 |  | > 100 | > 100 | > 100 | > 100 | > 100 | > 100 | > 100 |  |  | > 100 | > 100 |
| Brc1ccc2c(c1)C1C(CO2)C(c2ccccc2)=NN1c1ccccc1 (stereo unspecified) | > 100 | > 100 | > 100 | > 100 | > 100 | > 100 | > 100 | > 100 | > 100 | > 100 |  | > 100 | > 100 | > 100 |  |  |  |  | > 100 |
| COC(=O)CCc1cccnc1/C=N/O | > 100 | > 100 | > 100 | > 100 | > 100 | > 100 | > 100 | > 100 | > 100 | > 100 | > 100 | > 100 | > 100 | > 100 | > 100 |  |  | > 100 | > 100 |
| CCOC(=O)/C(C[C@H]1OC(C)(C)O[C@@H]1[C@H]1COC(C)(C)O1)=N/O | > 100 | > 100 | > 100 | > 100 | > 100 | > 100 | > 100 |  | > 100 | > 100 |  | > 100 | > 100 | > 100 | > 100 | > 100 | > 100 | > 100 | > 100 |
| COc1ccc(N2C(=O)[C@@H]3[C@H](C2=O)c2[nH]c4ccccc4c2C2CCC(C(C)(C)C)C[C@@H]23)cc1 (stereo partly specified) | 64 | > 100 | 31.1 | > 100 | > 100 | > 100 | > 80.3 | 38 | 49.1 | > 58.6 |  | > 100 | > 100 | 32.9 | > 100 |  |  | > 68.9 |  |
| Cn1nc2ccc3nccc(N(CCO)CCO)c3c2n1 | > 100 | > 100 | > 100 | > 100 | > 100 | > 100 | > 100 | > 100 | > 100 | > 100 | > 100 | > 100 | > 100 | > 100 | > 100 |  |  | > 100 | > 100 |
| CC1CN=C(NS(=O)(=O)c2cc(C(=O)Nc3ccc(F)cc3)c(Cl)cc2S)NN1 (stereo unspecified) | 64.1 | > 100 | > 100 | > 100 | > 100 | > 100 | > 100 |  | > 100 | > 100 | > 100 | > 100 | > 100 | > 100 | > 100 |  | > 100 | > 100 |  |
| CCCCCCCCCCCCn1[nH]c(C)c(C(=S)SCCCCCCCC)c1=O | > 100 | > 100 | > 100 | > 100 | > 100 | > 75.7 | > 100 | > 100 | > 100 | > 100 | > 39.9 | > 77.2 | > 100 | > 100 | > 100 |  |  | > 100 | > 100 |
| CCN(CC)Cc1cc(Nc2c3ccccc3nc3c4ccccc4n(C)c23)ccc1O | 27.8 | 21.9 | 14 | 19.5 | 23.9 | 12.9 | 28.2 | 27.3 | 22.7 | 9.1 |  | 8.47 | 52.4 | 24.3 | 6.6 |  |  | 26 | 18.9 |
| C/C(=N\Nc1nc2ccccc2o1)c1cc(C)ncn1 | > 100 | 26.8 | 24.3 | > 100 | 11.7 | > 100 | > 39 | 3.27 | > 100 |  | > 100 | 3.09 |  | > 35.3 | 14.3 |  | > 100 | 42.5 | > 21.7 |
| CC1C=C[C@H](Sc2ccccc2)CC[C@@]1(C)O (stereo partly specified) | > 100 | > 100 | > 100 | > 100 |  | > 100 | > 100 | > 100 | > 100 | > 100 |  | > 100 |  | > 100 | > 100 |  |  | > 100 | > 100 |
| Cn1c2ccccc2c2nc3ccccc3c(Cl)c21 | > 100 | > 100 | > 100 | > 100 | > 100 | > 100 | > 100 | > 100 | > 100 | > 100 | > 100 | > 100 | > 100 | > 100 |  | > 100 | > 100 | > 100 |  |
| CSc1nc2c(c(O)c(C)c(=O)n2C2OCC(OC(C)=O)C(OC(C)=O)C2OC(C)=O)c(=O)n1C (stereo unspecified) | > 100 | > 100 | > 100 | > 100 | > 100 | > 100 | > 100 | > 100 | > 100 | > 100 | > 100 | > 100 | > 100 | > 100 | > 100 |  |  | > 100 | > 100 |
| CCCCNC(=O)CCN(C(=O)O)S(=O)(=O)c1ccc(NC(=O)c2ccccc2)cc1 | > 100 | > 100 | 29.7 | > 100 | > 100 | > 100 | > 100 | > 100 | > 100 | 34.6 | > 100 | > 100 | > 100 | > 100 | > 100 |  |  | > 100 | > 100 |
| CCC1(N=[N+]=[N-])C(=O)c2ccccc2N(c2ccccc2)C1=O (stereo unspecified) | > 100 | > 100 | > 100 | > 100 | > 100 | > 100 | > 100 | > 100 | > 100 | > 100 | > 100 | > 100 | > 100 | > 100 | > 100 |  |  | > 100 | > 100 |
| Cc1nc2c(n1CCN(C)C)C(=O)c1ccccc1C2=O |  |  | > 100 | 33 | 40.9 | 30.7 | 52.8 | > 100 | 32.2 | 39.1 | 73.2 | 62.1 | 72 | 78.7 | 20.4 |  |  |  |  |
| CN(NC(=O)/C(=C\c1ccco1)NC(=O)c1ccccc1)c1cn[nH]c(=O)c1Cl |  | > 100 | > 100 | > 100 | > 100 |  | > 100 | 84.2 | > 100 | 58.2 | > 100 | 93.3 | > 100 | > 100 | 94.9 | > 100 | > 100 | > 100 | > 100 |
